Test [1] has as its system Pseudomonas aeruginosa ATCC 27853. Description: Minimum Inhibitory Concentration (MIC) test. The format is cell-based. Conditions: Table 3, known antibiotics as control; 24 h at 37° C.
The test system of test [2] is Staphylococcus aureus ATCC 29213. Description: Minimum Inhibitory Concentration (MIC) test. The format is cell-based. Conditions: Table 3, known antibiotics as control; 24 h at 37° C.

≈ marks a conversion by molar mass, not a printed value.

For `CC1=C(C(=O)O)N2C(=O)[C@@H](NC(=O)[C@H](N)c3ccccc3)[C@H]2SC1` [Cephalexine], the “MIC Pseudomonas aeruginosa ATCC 27853 = DSM 1117” value in test [1] was greater than 4096 µg/mL. For the same compound, the “MIC Staphylococcus aureus ATCC 29213 = DSM 2569” value in test [2] was 4 µg/mL (≈ 0.0115 mM).

Values taken from patent US10016354B2, “Compositions containing polymeric, ionic compounds comprising imidazolium groups” (BASF SE, priority 2011, dated 2018).
